Patent US10098878B2, “HIF-2α inhibitors for treating iron overload disorders” (The Board of Regents of the University of Texas System, priority 2014, dated 2018)
Like-named read-outs stand apart in the source and are kept apart here.

What was measured:
786-O-Hif-Luc cells = test: Luciferase Assay; format: cell-based; conditions: read-out: Luciferase EC50
Procedure: A pool of infected cells were then selected against 2 μg/mL of puromycin (P8833, Sigma) for 10 days followed by limited dilution to select single clones.
Each concentration was tested in triplicate. After about 24 hours, luciferase activity was determined using ONE-Glo Luciferase Assay Reagent (E6110, Promega) following the manufacturer's recommended procedure. EC50 were calculated by using Dotmatics software.

[1] = molecular target: T1, HIF-2α HIS TAG-PASB Domain (Homo sapiens, UniProt Q99814); test: HIF-2α Scintillation Proximity Assay (SPA); format: binding; conditions: 100 nM HIF-2α HIS TAG-PASB Domain
T1 construct: 100 nM HIF-2α HIS TAG-PASB Domain
How it was run: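 IC50 values rest on percent inhibition, where the sample signal is scaled between high and low controls. Wells contain about 100 μL: compound dispensed as 2 μL of DMSO solution, 88 μL protein-probe mix and 10 μL of beads.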

[2] = 24 h, 786-O-Hif-Luc cells, about 24 hours
[3] = 150 nM Compound 211 probe, read-out: SPA IC50
[4] = SPA IC50, 150 nM Compound 211 probe
[5] = 786-O-Hif-Luc cells, about 24 hours

T1 sequence (Q99814 240-350 limits assumed): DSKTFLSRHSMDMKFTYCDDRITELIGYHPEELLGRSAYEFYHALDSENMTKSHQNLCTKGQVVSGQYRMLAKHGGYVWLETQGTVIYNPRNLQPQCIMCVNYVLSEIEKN

| EC50 (786-O-Hif-Luc cells; [2]) [nM] | IC50 [1, 3] [nM] | Compound | also measured |
| --- | --- | --- | --- |
| 2100 | 1850 | C[C@@H]1Cc2c(Oc3cc(F)cc(C#N)c3)ccc(S(C)(=O)=O)c2[C@@H]1O [Compound 65, 3-fluoro-5-(((1R,2R)-1-hydroxy-2-methyl-7-(methylsulfonyl)-2,3-dihydro-1H-inden-4-yl)oxy)benzonitrile] | – |
| 631 | 150 | CS(=O)(=O)c1ccc(Oc2cc(F)cc(C#N)c2)c2c1[C@H](O)C(F)(F)[C@@H]2O [Compound 76, 3-[(1S,3R)-2,2-difluoro-1,3-dihydroxy-7-methylsulfonyl-indan-4-yl]oxy-5-fluoro-benzonitrile] | – |
| 1070 | 1800 | CS(=O)(=O)c1ccc(Oc2cncc(C#N)c2)c2c1[C@H](O)[C@H](F)C2 [Compound 77, 5-(((1S,2R)-2-fluoro-1-hydroxy-7-(methylsulfonyl)-2,3-dihydro-1H-inden-4-yl)oxy)nicotinonitrile] | – |
| 475 | 54 | CS(=O)(=O)c1ccc(Oc2cncc(Br)c2)c2c1[C@H](O)C(F)(F)C2 [Compound 88, (S)-4-((5-Bromopyridin-3-yl)oxy)-2,2-difluoro-7-(methylsulfonyl)-2,3-dihydro-1H-inden-1-ol] | – |
| 224 | 73 | N#Cc1cc(F)cc(Oc2ccc(S(N)(=O)=O)c3c2C[C@@H](F)[C@H]3O)c1 [Compound 98, (2R,3S)-7-(3-cyano-5-fluoro-phenoxy)-2-fluoro-3-hydroxy-indane-4-sulfonamide] | – |
| 1650 | 510 | CS(=O)(=O)c1ccc(Oc2cc(F)cc(C#N)c2)c2c1[C@H](N)C(F)(F)[C@@H]2F [Compound 110] | – |
| 226 | 46.5 | N#Cc1c(Oc2cc(F)cc(Cl)c2)ccc2c1[C@@H](O)CS2(=O)=O [Compound 112, (3R)-5-(3-chloro-5-fluoro-phenoxy)-3-hydroxy-1,1-dioxo-2,3-dihydrobenzothiophene-4-carbonitrile] | – |
| – | – | N#Cc1c(Oc2cc(F)cc(Cl)c2)ccc2c1C(O)C(F)(F)S2(=O)=O (stereo not drawn) [Compound 120, 5-(3-chloro-5-fluorophenoxy)-2,2-difluoro-3-hydroxy-2,3-dihydrobenzo[b]thiophene-4-carbonitrile 1,1-dioxide] | EC50 (786-O-Hif-Luc cells): 4170 nM; IC50 [1, 4]: 45 nM |
| 3720 | 200 | NC1c2cc(Oc3cc(F)cc(Cl)c3)ccc2S(=O)(=O)C1(F)F (stereo not drawn) [Compound 122, 3-Amino-5-(3-chloro-5-fluorophenoxy)-2,2-difluoro-2,3-dihydrobenzo[b]thiophene 1,1-dioxide] | – |
| – | – | Cc1c(Oc2cc(F)cc(Cl)c2)ccc2c1C(O)C(F)(F)S2(=O)=O (stereo not drawn) [Compound 123, 5-(3-Chloro-5-fluorophenoxy)-2,2-difluoro-3-hydroxy-4-methyl-2,3-dihydrobenzo[b]thiophene 1,1-dioxide] | EC50 (786-O-Hif-Luc cells): 449 nM; IC50 [1, 4]: 15 nM |
| 725 | 100 | O=S1(=O)CC(O)c2c1ccc(Oc1cc(F)cc(Cl)c1)c2C(F)F (stereo not drawn) [Compound 125, 5-(3-Chloro-5-fluorophenoxy)-4-(difluoromethyl)-3-hydroxy-2,3-dihydrobenzo[b]thiophene 1,1-dioxide] | – |
| 6890 | 7880 | NC1CS(=O)(=O)c2ccc(Oc3cc(F)cc(Cl)c3)c(C(F)F)c21 (stereo not drawn) [Compound 127, 3-Amino-5-(3-chloro-5-fluorophenoxy)-4-(difluoromethyl)-2,3-dihydrobenzo[b]thiophene 1,1-dioxide] | – |
| 718 | 77 | O=S1(=O)CC(O)c2c1ccc(Oc1cc(F)cc(F)c1)c2C(F)F (stereo not drawn) [Compound 134, 4-(Difluoromethyl)-5-(3,5-difluorophenoxy)-3-hydroxy-2,3-dihydrobenzo[b]thiophene 1,1-dioxide] | – |
| – | – | [2H]C1(O)c2c(ccc(Oc3cc(F)cc(Cl)c3)c2C(F)F)S(=O)(=O)C1(F)F (stereo not drawn) [Compound 135, 5-(3-Chloro-5-fluorophenoxy)-4-(difluoromethyl)-2,2-difluoro-3-hydroxy-2,3-dihydrobenzo[b]thiophene 1,1-dioxide-3-d] | EC50 (786-O-Hif-Luc cells; [5]): 10 nM; IC50 [1, 4]: < 5 nM |
| 1430 | 700 | N#Cc1cc(F)cc(Oc2ccc3c(c2C(F)F)C(O)CS3(=O)=O)c1 (stereo not drawn) [Compound 138, 3-((4-(Difluoromethyl)-3-hydroxy-1,1-dioxido-2,3-dihydrobenzo[b]thiophen-5-yl)oxy)-5-fluorobenzonitrile] | – |
| – | – | NC1c2c(ccc(Oc3cc(F)cc(F)c3)c2Br)S(=O)(=O)C1(F)F (stereo not drawn) [Compound 140, 3-Amino-4-bromo-5-(3,5-difluorophenoxy)-2,2-difluoro-2,3-dihydrobenzo[b]thiophene 1,1-dioxide] | EC50 (786-O-Hif-Luc cells; 24 h): 1700 nM; IC50 [1, 4]: < 5 nM |
| 1780 | < 5 | COCCNC1c2c(ccc(Oc3cc(F)cc(F)c3)c2Br)S(=O)(=O)C1(F)F (stereo not drawn) [Compound 143, 4-Bromo-5-(3,5-difluorophenoxy)-2,2-difluoro-3-((2-methoxyethyl)amino)-2,3-dihydrobenzo[b]thiophene 1,1-dioxide] | – |
| – | – | O=S1(=O)c2ccc(Oc3cncc(Cl)c3)c(C(F)F)c2C(O)C1(F)F (stereo not drawn) [Compound 145, 5-((5-Chloropyridin-3-yl)oxy)-4-(difluoromethyl)-2,2-difluoro-3-hydroxy-2,3-dihydrobenzo[b]thiophene 1,1-dioxide] | EC50 (786-O-Hif-Luc cells): 149 nM; IC50 [1, 4]: 229 nM |
| – | – | N#Cc1cncc(Oc2ccc3c(c2C(F)F)C(O)C(F)(F)S3(=O)=O)c1 (stereo not drawn) [Compound 147, 5-((4-(Difluoromethyl)-2,2-difluoro-3-hydroxy-1,1-dioxido-2,3-dihydrobenzo[b]thiophen-5-yl)oxy)nicotinonitrile] | EC50 (786-O-Hif-Luc cells): 170 nM; IC50 [1, 4]: 120 nM |
| – | – | N#Cc1cc(F)cc(Oc2ccc3c(c2C(F)F)C(=O)C(F)(F)S3(=O)=O)c1 [Compound 149, 3-((4-(Difluoromethyl)-2,2-difluoro-1,1-dioxido-3-oxo-2,3-dihydrobenzo[b]thiophen-5-yl)oxy)-5-fluorobenzonitrile] | EC50 (786-O-Hif-Luc cells; [5]): 2790 nM; IC50 [1, 4]: 2400 nM |
| 126 | 86 | N#Cc1cc(F)cc(Oc2ccc3c(c2CF)C(O)C(F)(F)S3(=O)=O)c1 (stereo not drawn) [Compound 152, 3-((2,2-Difluoro-4-(fluoromethyl)-3-hydroxy-1,1-dioxido-2,3-dihydrobenzo[b]thiophen-5-yl)oxy)-5-fluorobenzonitrile] | – |
| 793 | 1640 | N#Cc1c(Oc2cc(F)cc(F)c2)ccc2c1C(O)C(F)S2(=O)=O (stereo not drawn) [Compound 154, 5-(3,5-Difluorophenoxy)-2-fluoro-3-hydroxy-2,3-dihydrobenzo[b]thiophene-4-carbonitrile 1,1-dioxide] | – |
| 100 | < 5 | Cc1cc(C#N)cc(Oc2ccc3c(c2C(F)F)[C@@H](O)C(F)(F)S3(=O)=O)c1 [Compound 156, (R)-3-((4-(Difluoromethyl)-2,2-difluoro-3-hydroxy-1,1-dioxido-2,3-dihydrobenzo[b]thiophen-5-yl)oxy)-5-methylbenzonitrile] | – |
| 1880 | 1470 | N#CN=S1(=O)CC(O)c2c1ccc(Oc1cc(F)cc(F)c1)c2C(F)F (stereo not drawn) [Compound 158, N-(4-(Difluoromethyl)-5-(3,5-difluorophenoxy)-3-hydroxy-1-oxido-2,3-dihydro-1λ^4-benzo[b]thiophen-1-ylidene)cyanamide] | – |
